Results from US20120040389A1 (Institut National de la Sante et de la Recherche Medicale …, priority 2003, published 2012).

Key:
clone 10 cells = assay: Cell cycle distribution by propidium iodide, coupled with the Bax activation test; format: cell-based, human; settings: propidium iodide 0.4-0.8 mg/ml, 30 minutes at 4° C., FIG. 11
Procedure: FIG. 11A-E represents the coupled measurement of Bax activation and the cell cycle. The clone 10 cells stably expressing the GFP-Bax fusion protein are treated with various drugs acting as pro-apoptotic agents and/or cytostatic agents. The measurement of Bax activation is carried out as described previously by evaluation of the retention of fluorescence after permeabilization with digitonin. In the permeabilization buffer, propidium iodide (0.4-0.8 mg/ml) was added and the cells were incubated for 30 minutes at 4° C. The distribution of the cells in the various phases of the cell cycle is read on the basis of their intensity of fluorescence in the red (PI). […] Moreover, it makes it possible to evaluate if Bax activation takes place in a preferential phase of the cell cycle.
The measurement of the cell cycle can be carried out in a traditional way by adding to the permeabilized cell suspension a sufficient concentration of propidium iodide (0.4-0.8 mg/ml). The cells are incubated for 30 minutes to allow time for PI to become intercalated in the genomic DNA, and then analyzed using flow cytometry by simultaneously measuring “green” fluorescence (FL1=the recombinant biosensor signal based on GFP or another fluorescent protein emitting in the green range) and “red” fluorescence (FL3=the intensity of PI corresponding to the chromatin content of each cell, which enables the cell cycle to be read).

Bax protein = assay: Bax activation: retention of GFP-Bax fluorescence after digitonin permeabilization, flow cytometry; format: cell-based, human; settings: clone 10; coupled test FL1 (GFP) / FL3 (DNA); FIG. 11
Procedure: FIG. 11A-E represents the coupled measurement of Bax activation and the cell cycle. The clone 10 cells stably expressing the GFP-Bax fusion protein are treated with various drugs acting as pro-apoptotic agents and/or cytostatic agents. The measurement of Bax activation is carried out as described previously by evaluation of the retention of fluorescence after permeabilization with digitonin. In the permeabilization buffer, propidium iodide (0.4-0.8 mg/ml) was added and the cells were incubated for 30 minutes at 4° C. The distribution of the cells in the various phases of the cell cycle is read on the basis of their intensity of fluorescence in the red (PI).
The model implemented uses a clone designated “clone 10”.
The test is then based on the observation, under the fluorescence microscope or by flow cytometry, of the cells in which Bax is not activated and thus is distributed uniformly in the cytosol and of the cells in which Bax has been activated following an induction of apoptosis. In the latter case, the fluorescent signal is aggregated around the mitochondria and the Bax protein is thus considered as “bound”.
The cells are then resuspended in an intracellular saline solution in the presence of 50 μM of digitonin and then analyzed by flow cytometry and the fluorescence of the GFP is measured in channel FL1.

caspase 3 [1] = assay: Cleavage and redistribution of caspase 3 probes, confocal and fluorescence microscopy; format: cell-based, human
Procedure: The quantification of cleavage and of the diffusion of the fluorescent signal in the cytosol is carried out by measuring the increase in the respectively green and red fluorescent signal in a region of the nucleus.
The quantification of the cleavage and of the diffusion of the fluorescent signal respectively from the nucleus to the cytosol for the protein H2B-DEVD-GFP and from the cytosol to the nucleus for the protein HcRed-DEVT-cb5 is carried out by measuring the increase in the fluorescent signal, respectively green in a cytosolic region of the cell and red in a region of the nucleus. e) Evaluation by flow cytometry of the functionality of the probe by quantification of the percentage of retention of fluorescence after permeabilization in a population of HeLa cells transfected transiently with the protein H2B-DEVD-GFP and its non-cleavable control.
The cells are cultivated on glass slides and transfected with the vector described previously; they are then mounted in a saline medium in an incubation chamber and observed under the fluorescence microscope. Before or during the observation, they are treated with the pro-apoptotic agent.

caspase 2 = assay: Distribution of nuclear-anchored caspase 2 probe in HeLa cells; format: cell-based, human; settings: transiently transfected, 3 hours, untreated cells show nuclear distribution, FIG. 10e
From the text: Fusion proteins GFP-cb5TMRR and GFP-SNAP(80-136) were constructed which carry, in the linker connecting the fluorescent protein and the anchoring segment, the caspase 8 consensus sensing site (IETD) which is principal “initiating” pro-apoptotic caspase. In the same manner, a fusion protein GFP-H2B was constructed which contains, in the sequence linker, the caspase 2 consensus sensing sequence (VDVAD), which is a protease with nuclear localization. The sensing components thus used have as sequences SEQ ID No. 6 and 14 (for caspase 8), and SEQ ID No. 12 (for caspase 2). These proteins are cleavable and the quantification of the proteolytic activity can be carried out via cytometry as shown for caspase 3 (FIG. 10).

caspase 3 [2] = assay: Caspase 3 activation in a xenografted clone 23 tumor in nude mice, confocal microscopy; format: in vivo; settings: mouse with xenografted clone 23 tumor; 40 mg/kg/day for 4 days; FIG. 12c
From the text: FIG. 12 represents the xenograft of lines expressing a fluorescent biosensor. a) Confocal microscopy image (10×) of a section of a solid tumor generated by a subcutaneous xenograft of clone 10 cells (stably expressing GFP-Bax) in nude mice. Marking of nuclei (Hoechst) and cells with activated Bax (GFP-Bax). On the right, the detail of a cell with GFP-Bax relocalized to the mitochondria (GFP-Bax) and corresponding nuclear marking (Hoechst). b) Confocal microscopy image (10×) of a section of a solid tumor generated by a subcutaneous xenograft of clone 23 cells (stably expressing the protein copGFP-DEVD-cb5TMD-RR) in nude mice. Marking of nuclei (Hoechst) and distribution of the biosensor (caspase 3 probe).
These lines (designated clone 10 and clone 23, respectively), injected subcutaneously in “nude” mice form solid fluorescent tumors after a few days.

Compound: CN[C@H]1CCc2cc(OC)c(OC)c(OC)c2-c2ccc(OC)c(=O)cc21 [colcemid]
- Effect on the cell cycle (distribution in phases G1, S, G2/M) (clone 10 cells): accumulation in phase G2

Compound: CC[C@@]1(O)C(=O)OCc2c1cc1n(c2=O)Cc2cc3ccccc3nc2-1 [camptothecin]
- Bax activation in relation to the phase of the cell cycle (Bax protein): Bax activation preferentially in phase Gl
- Effect on the cell cycle (distribution in phases G1, S, G2/M) (clone 10 cells): blockage in phase S

Compound: CN[C@@H]1C[C@H]2O[C@@](C)([C@@H]1OC)n1c3ccccc3c3c4c(c5c6ccccc6n2c5c31)C(=O)NC4 [staurosporine]
- Bax activation in relation to the phase of the cell cycle (Bax protein): induction of Bax activation in any phase of the cycle
- Effect on the cell cycle (distribution in phases G1, S, G2/M) (clone 10 cells): no effect on the cycle
- Cleavage of probes GFP-DEVD-ANT and HcRed-DEVD-Cb5RR (caspase 3 [1]; human HeLa cells, transiently co-transfected, confocal microscopy, FIG. 8e-f): Release of the fluorescent protein in the cytosol following its cleavage
- Distribution of fluorescent protein H2B-DEVD-GFP (caspase 3 [1]; human HeLa cells, transiently transfected, untreated cells show nuclear distribution, FIG. 9c): cytosolic distribution
- Cleavage of probe GFP-DEVD-SNAP(80-136) (caspase 3 [1]; human SH-SY5Y neuroblastoma cells, transiently transfected, confocal microscopy, FIG. 7c): Release of the fluorescent protein in the cytosol following its cleavage
- Distribution of fluorescent protein GFP-IETD-H2B (caspase 2): cytosolic distribution

Compound: COc1cc([C@@H]2c3cc4c(cc3[C@@H](O[C@@H]3O[C@@H]5CO[C@@H](C)O[C@H]5[C@H](O)[C@H]3O)[C@H]3COC(=O)[C@H]23)OCO4)cc(OC)c1O [etoposide]
- Caspase 3 activation in tumor cells (cytosolic distribution of fluorescence) (caspase 3 [2]): appearance of cells having activated caspase 3

Compound: COc1cccc2c1C(=O)c1c(O)c3c(c(O)c1C2=O)C[C@@](O)(C(C)=O)C[C@@H]3O[C@H]1C[C@H](N)[C@H](O)[C@H](C)O1 [daunorubicin]
- Bax activation in relation to the phase of the cell cycle (Bax protein): Bax activation in phase S
- Effect on the cell cycle (distribution in phases G1, S, G2/M) (clone 10 cells): accumulation in phase G2
